Laboratory results taken from PMC7615792 (ACS catalysis, 2023).

Experiments:
AtzB_Hom_Hal = target: T1, AtzB_Hom_Hal (Mangrovimicrobium sediminis, UniProt A0A4Z0M5D5); assay: direct photometric steady-state assay, spectrophotometer; assay type: biochemical; conditions: 50 mM potassium phosphate pH 7.5, 25 °C
T1 sequence (A0A4Z0M5D5 1-465): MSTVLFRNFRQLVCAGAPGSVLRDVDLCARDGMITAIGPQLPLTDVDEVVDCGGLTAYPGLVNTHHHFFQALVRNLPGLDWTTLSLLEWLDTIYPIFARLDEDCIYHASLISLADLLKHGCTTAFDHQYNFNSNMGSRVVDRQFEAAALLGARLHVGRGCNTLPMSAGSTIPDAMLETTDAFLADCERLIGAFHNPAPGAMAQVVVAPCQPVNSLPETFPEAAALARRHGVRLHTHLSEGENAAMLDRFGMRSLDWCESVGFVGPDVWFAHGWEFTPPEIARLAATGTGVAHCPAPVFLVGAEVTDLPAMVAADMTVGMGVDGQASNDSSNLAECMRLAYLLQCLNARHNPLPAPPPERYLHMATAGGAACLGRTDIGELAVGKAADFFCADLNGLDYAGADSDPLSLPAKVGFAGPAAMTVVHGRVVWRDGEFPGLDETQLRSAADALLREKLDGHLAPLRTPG

AtzB = target: T2, AtzB (Pseudomonas sp. ADP, UniProt P95442); assay: as above; assay type: biochemical; conditions: 50 mM potassium phosphate pH 7.5, 25 °C
T2 sequence (P95442 1-481): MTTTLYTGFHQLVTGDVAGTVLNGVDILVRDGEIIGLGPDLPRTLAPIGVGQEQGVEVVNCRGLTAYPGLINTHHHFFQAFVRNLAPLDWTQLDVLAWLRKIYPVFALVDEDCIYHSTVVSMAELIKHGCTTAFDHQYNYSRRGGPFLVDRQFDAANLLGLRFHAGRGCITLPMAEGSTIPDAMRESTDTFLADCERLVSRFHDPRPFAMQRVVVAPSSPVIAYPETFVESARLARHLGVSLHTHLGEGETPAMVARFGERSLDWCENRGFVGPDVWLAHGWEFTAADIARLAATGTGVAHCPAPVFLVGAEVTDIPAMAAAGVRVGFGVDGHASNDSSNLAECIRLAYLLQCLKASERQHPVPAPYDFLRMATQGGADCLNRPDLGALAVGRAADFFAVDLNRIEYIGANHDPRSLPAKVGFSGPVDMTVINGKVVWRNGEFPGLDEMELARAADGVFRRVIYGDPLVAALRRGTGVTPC

Row | SMILES | KM (AtzB_Hom_Hal) | kcat/KM (AtzB)
1 | CCNc1nc(O)nc(NC(C)C)n1 [II, hydroxyatrazine] | promiscuous hydroxyatrazine hydrolase activities of AtzB_Hom_Hal and AtzB_Hom_Pleo | 
2 | Nc1nc2[nH]cnc2c(=O)[nH]1 [guanine] |  | represents an increase of about three orders of magnitude compared to AtzB
